Test results published in patent US20210386367A1, “DEVICES AND SYSTEMS FOR GASTROINTESTINAL MICROBIOME DETECTION AND MANIPULATION” (Progenity, Inc., priority 2018, published 2021).
≈ marks a conversion by molar mass, not a printed value. Where two headings read alike, the source gives them in different places.

How the values were obtained:
Type in all cases: cell-based
Enterococcus faecalis = assay: Broth microdilution MIC, 50 clinical isolates
Experimental: (§1) Minimal inhibitory concentration (MIC) values were determined by broth microdilution or agar dilution in accordance with guidelines from the Clinical and Laboratory Standards Institute (CLSI; (1) “Methods for Dilution Antimicrobial Susceptibility Tests for Bacteria That Grow Aerobically; Approved Standard; 11th ed.” CLSI standard M07-A11, 2018; (2) “Performance Standards for Antimicrobial Susceptibility Testing; Twenty-Eighth Informational Supplement,” CLSI document M100-S28, 2018; and (3) “Methods for Antimicrobial Susceptibility Testing of Anaerobic Bacteria; Approved Standard—Eighth Edition,” CLSI document M11-A8, 2012).
(§2) Tested aerobically by broth microdilution: • Escherichia coli, n=50 • Klebsiella spp., n=50 • Pseudomonas aeruginosa, n=50 • Streptococcus spp., n=50 • Staphylococcus aureus, n=50 • Enterococcus faecalis, n=50 • Enterobacter aerogenes, n=50 • Proteus mirabilis, n=50
(§3) Broth microdilution testing of aerobic bacteria was conducted in cation-adjusted Mueller Hinton broth (MHBII). For testing streptococci, lysed horse blood (LHB) was added to MHBII broth at a final concentration of 3%. Where LHB was used, it was added after filtering.
(§4) Broth microdilution susceptibility testing in 96-well microplates was conducted in accordance with CLSI methods (1) and (2). Automated liquid handlers were used to conduct serial dilutions and liquid transfers, including the Multidrop 384 (Labsystems, Helsinki, Finland), Biomek 2000, and the Biomek FX (Beckman Coulter, Fullerton, Calif.). All wells in columns 2 through 12 of a standard 96-well microdilution plate (Costar 3795) were filled with 150 μL of the appropriate diluent. Then, 300 μL of the test agents were added to the wells of column 1 of the plates at 100× the highest final concentration to be tested. Serial two-fold dilutions were made across the rows through column 11 using the Biomek 2000. The wells of column 12 contained no drug and served as the growth control wells. This plate served as the “mother plate” from which MIC assay plates or “daughter plates” were made.
(§5) The daughter plates were loaded with 190 μL per well of the appropriate medium using the Multidrop 384. The daughter plates were created using the Biomek FX which transferred 2 μL of drug solution from each well of a mother plate to each corresponding well of the daughter plate in a single step. A standardized inoculum of each test organism was prepared per CLSI methods (1) to equal a 0.5 McFarland standard, followed by a dilution of 1:20 for aerobes and 1:10 for anaerobes. The plates were then inoculated with 10 μL of the diluted inoculum using the Biomek 2000 from low to high drug concentration, resulting in a final concentration of approximately 5×10^5 CFU/mL per well. An un-inoculated plate was incubated in parallel for each medium for the purpose of assessing solubility of the drug in the test media.
(§6) Inoculated plates were stacked 3 or 4 high, covered with a sterile lid on the top plate, placed into boxes with CO2 planchets (streptococci) or plastic bags (all other isolates). Plates were incubated at 35° C. for 16-24 hr in ambient air for aerobes or for 42-48 hr in the anaerobic environment of the Bactron II anaerobe chamber (Sheldon Manufacturing Co.; Cornelius, Oreg.). Following incubation, the microplates were removed from the incubator and viewed from the bottom using a plate viewer. The MIC values were read and recorded as the lowest concentration of drug that inhibited visible growth of the organism as per CLSI methods (1) and (2).

Streptococcus spp. = assay: Broth microdilution MIC, 54 clinical isolates; conditions: for Mode: modal MIC
Experimental: as §1, §2, §3, §4, §5, §6

[1] = system: Viridans group Streptococci clinical isolates; assay: MIC distribution against clinical isolates; conditions: 15 Viridans group Streptococci isolates
From the text: (§7) As used herein, “minimum inhibitory concentration” or “MIC” refers to the lowest concentration of an antimicrobial agent, for example, an antimicrobial agent as described herein, required to inhibit the growth of an organism. […] “MIC90” represents the MIC value at which ≥90% of the strains within a test population are inhibited; the 90th percentile.
(§8) Many susceptibility testing methods are known in the art and can be used as described herein (see, e.g., Jorgensen and Ferraro (2009) Clinical Infectious Diseases 49:1749-1755; and Maurer et al. (2017) Infectious Disease Reports 9:6839; the entire contents of each of the foregoing are incorporated herein by reference). For example, antimicrobial susceptibility can be determined using conventional culture based methods such as the broth or agar dilution test. In these dilution tests, the bacterial isolate of interest is inoculated onto different media that include serial dilutions of an antimicrobial agent, and incubated under appropriate conditions (e.g., overnight at 37° C.) to allow for growth to occur. Following the incubation period, the media is examined to determine bacterial growth. The lowest concentration of antibiotic that prevents growth represents the minimal inhibitory concentration (MIC). Broth dilution tests can be miniaturized and mechanized allowing for reproducibility and high throughput.

[2] = system: Streptococcus pyogenes clinical isolates; assay: MIC distribution against clinical isolates
From the text: as §7, §8

Staphylococcus aureus = assay: Broth microdilution MIC, 50 clinical isolates (28 MRSA)
Experimental: as §1, §2, §3, §4, §5, §6

[3] = system: Viridans group Streptococcus; assay: Broth microdilution MIC, 15 clinical isolates; conditions: for Mode: modal MIC
Experimental: as §1, §2, §3, §4, §5, §6

Streptococcus agalactiae = assay: Broth microdilution MIC, 20 clinical isolates; conditions: for Mode: modal MIC
Experimental: as §1, §2, §3, §4, §5, §6

[4] = system: Streptococcus spp. clinical isolates; assay: MIC distribution against clinical isolates; conditions: 54 Streptococcus spp. isolates
From the text: (n=19 S. pyogenes, n=20 S. agalactiae and n=20 Viridans group Streptococcus) clinical isolates (μg/mL).
as §7, §8

[5] = 54 Streptococcus spp. clinical isolates
[6] = 15 Viridans group Streptococci clinical isolates
[7] = 20 Streptococcus agalactiae clinical isolates
[8] = 54 Streptococcus spp. clinical isolates, MXF by FDA breakpoints
[9] = MIC 0.008 μg/mL, 19 S. pyogenes isolates
[10] = MIC ≤0.004 μg/mL, 19 S. pyogenes isolates
[11] = 15 Viridans group Streptococci clinical isolates, MXF by FDA breakpoints

CO[C@H]1/C=C/O[C@@]2(C)Oc3c(C)c(O)c4c(O)c(c5c(nc6cc(C)ccn65)c4c3C2=O)NC(=O)/C(C)=C\C=C\[C@H](C)[C@H](O)[C@@H](C)[C@@H](O)[C@@H](C)[C@H](OC(C)=O)[C@@H]1C [rifaximin]
MIC50 (Enterococcus faecalis): 2 µg/mL (≈ 2.54 µM) | MIC90 (Enterococcus faecalis): 4 µg/mL (≈ 5.09 µM) | Mode (Enterococcus faecalis): 1 µg/mL | relative activity among drugs tested (Enterococcus faecalis): slightly more active than meropenem | MIC50 (Streptococcus spp.): 0.12 µg/mL (≈ 0.153 µM) | MIC90 (Streptococcus spp.): 0.25 µg/mL (≈ 0.318 µM) | MIC50 (Streptococcus spp.; [5]): 0.12 µg/mL (≈ 0.153 µM) | MIC90 (Streptococcus spp.; [5]): 0.25 µg/mL (≈ 0.318 µM) | MIC range (Streptococcus spp.; [5]): 0.015 to 0.3 µg/mL | Mode (Streptococcus spp.; [5]): 0.12 µg/mL | Number of test isolates at MIC ([1]; MIC 0.06 μg/mL): 6 | Number of test isolates at MIC ([2]; MIC 0.06 μg/mL, 19 S. pyogenes isolates): 6 | MIC50 (Staphylococcus aureus): 0.015 µg/mL (≈ 0.0191 µM) | MIC90 (Staphylococcus aureus): 0.06 µg/mL (≈ 0.0763 µM) | MIC range (Staphylococcus aureus): 0.008 to 32 µg/mL | Mode (Staphylococcus aureus): 0.015 µg/mL | relative activity among drugs tested (Staphylococcus aureus): most active drug tested | MIC50 [3]: 0.06 µg/mL (≈ 0.0763 µM) | MIC90 [3]: 0.12 µg/mL (≈ 0.153 µM) | MIC50 [3, 6]: 0.06 µg/mL (≈ 0.0763 µM) | MIC90 [3, 6]: 0.12 µg/mL (≈ 0.153 µM) | MIC range [3, 6]: 0.015 to 0.1 µg/mL | Mode [3, 6]: 0.06 µg/mL | MIC50 (Streptococcus agalactiae): 0.12 µg/mL (≈ 0.153 µM) | MIC90 (Streptococcus agalactiae): 0.12 µg/mL (≈ 0.153 µM) | MIC50 (Streptococcus agalactiae; [7]): 0.12 µg/mL (≈ 0.153 µM) | MIC90 (Streptococcus agalactiae; [7]): 0.12 µg/mL (≈ 0.153 µM) | MIC range (Streptococcus agalactiae; [7]): 0.12 to 0.25 µg/mL | Mode (Streptococcus agalactiae; [7]): 0.12 µg/mL

Penicillin
Cumulative percentage of isolates inhibited at MIC ([4]; MIC 0.008 μg/mL): 35.2% | Number of test isolates at MIC ([4]; MIC 0.008 μg/mL): 9 | Cumulative percentage of isolates inhibited at MIC ([4]; MIC 1 μg/mL): 100.0% | Cumulative percentage of isolates inhibited at MIC ([4]; MIC ≤0.004 μg/mL): 18.5% | Number of test isolates at MIC ([4]; MIC ≤0.004 μg/mL): 10 | MIC50 (Streptococcus spp.; [5]): 0.03 µg/mL | MIC90 (Streptococcus spp.; [5]): 0.25 µg/mL | MIC range (Streptococcus spp.; [5]): ≤0.004-1^ μg/mL | % I (Streptococcus spp.; [8]): 11% ^ | % S (Streptococcus spp.; [8]): 89% | Mode (Streptococcus spp.; [5]): 0.03 µg/mL | Cumulative percentage of isolates inhibited at MIC ([1]; MIC 0.008 μg/mL): 6.7% | Number of test isolates at MIC ([1]; MIC 0.008 μg/mL): 1 | Cumulative percentage of isolates inhibited at MIC ([1]; MIC 1 μg/mL): 100.0% | Cumulative percentage of isolates inhibited at MIC [2]: 100.0% | Number of test isolates at MIC [2]: 1 | Cumulative percentage of isolates inhibited at MIC [2, 9]: 94.7% | Number of test isolates at MIC [2, 9]: 8 | Cumulative percentage of isolates inhibited at MIC [2, 10]: 52.6% | Number of test isolates at MIC [2, 10]: 10 | MIC50 [3, 6]: 0.03 µg/mL | MIC90 [3, 6]: 1 µg/mL | MIC range [3, 6]: 0.008 to 1 µg/mL | % I [3, 11]: 40% ^ | % S [3, 11]: 60% | Mode [3, 6]: 0.015 µg/mL | MIC50 (Streptococcus agalactiae; [7]): 0.03 µg/mL | MIC90 (Streptococcus agalactiae; [7]): 0.03 µg/mL | MIC range (Streptococcus agalactiae; [7]): 0.015 to 0.06 µg/mL | % S (Streptococcus agalactiae; 20 Streptococcus agalactiae clinical isolates, MXF by FDA breakpoints): 100% | Mode (Streptococcus agalactiae; [7]): 0.03 µg/mL
